Assay [1] addresses 5-hydroxytryptamine receptor 2B (Homo sapiens, UniProt P41595).
Assay [2] concerns the target 5-hydroxytryptamine receptor 7 (Homo sapiens, UniProt P34969).
Assay [3] has as its target 5-hydroxytryptamine receptor 5A (Homo sapiens, UniProt P47898).
Assay [4] concerns the target 5-hydroxytryptamine 1D receptor (Bos taurus, UniProt Q8MI13).
For assay [5], the target named is 5-hydroxytryptamine receptor 2A (Homo sapiens, UniProt P28223).
In assay [6] the target is T1, 5-hydroxytryptamine receptor 3A (Homo sapiens, UniProt P46098).
T1 sequence (P46098 whole entry): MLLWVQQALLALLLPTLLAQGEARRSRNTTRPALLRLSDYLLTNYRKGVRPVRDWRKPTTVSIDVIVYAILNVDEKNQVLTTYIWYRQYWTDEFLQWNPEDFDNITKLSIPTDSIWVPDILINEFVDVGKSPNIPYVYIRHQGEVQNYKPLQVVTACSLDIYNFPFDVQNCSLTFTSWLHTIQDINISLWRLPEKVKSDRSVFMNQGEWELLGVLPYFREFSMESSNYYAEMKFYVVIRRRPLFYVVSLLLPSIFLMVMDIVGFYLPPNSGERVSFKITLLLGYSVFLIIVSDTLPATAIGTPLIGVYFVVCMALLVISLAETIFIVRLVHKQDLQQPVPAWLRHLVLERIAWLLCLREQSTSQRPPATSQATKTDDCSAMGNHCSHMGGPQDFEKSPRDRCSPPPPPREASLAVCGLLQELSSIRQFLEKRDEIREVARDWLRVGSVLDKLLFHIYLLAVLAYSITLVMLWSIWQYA

Assay [7] has as its target T2, 5-hydroxytryptamine receptor 2C (Homo sapiens, UniProt P28335).
T2 sequence (P28335 whole entry): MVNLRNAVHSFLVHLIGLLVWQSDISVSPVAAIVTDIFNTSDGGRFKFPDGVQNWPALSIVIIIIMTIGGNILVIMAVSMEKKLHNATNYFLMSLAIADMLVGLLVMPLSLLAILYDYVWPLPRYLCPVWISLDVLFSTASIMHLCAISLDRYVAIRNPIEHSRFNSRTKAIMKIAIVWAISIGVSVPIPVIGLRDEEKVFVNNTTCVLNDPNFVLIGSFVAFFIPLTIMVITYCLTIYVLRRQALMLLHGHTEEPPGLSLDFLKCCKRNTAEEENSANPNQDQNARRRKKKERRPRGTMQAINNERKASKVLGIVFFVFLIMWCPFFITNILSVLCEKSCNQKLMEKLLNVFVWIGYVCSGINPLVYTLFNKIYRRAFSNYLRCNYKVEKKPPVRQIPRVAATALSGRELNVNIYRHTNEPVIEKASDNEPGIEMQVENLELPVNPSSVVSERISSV

For assay [8], the target named is T3, Alpha-2A adrenergic receptor (Homo sapiens, UniProt P08913).
T3 sequence (P08913 whole entry): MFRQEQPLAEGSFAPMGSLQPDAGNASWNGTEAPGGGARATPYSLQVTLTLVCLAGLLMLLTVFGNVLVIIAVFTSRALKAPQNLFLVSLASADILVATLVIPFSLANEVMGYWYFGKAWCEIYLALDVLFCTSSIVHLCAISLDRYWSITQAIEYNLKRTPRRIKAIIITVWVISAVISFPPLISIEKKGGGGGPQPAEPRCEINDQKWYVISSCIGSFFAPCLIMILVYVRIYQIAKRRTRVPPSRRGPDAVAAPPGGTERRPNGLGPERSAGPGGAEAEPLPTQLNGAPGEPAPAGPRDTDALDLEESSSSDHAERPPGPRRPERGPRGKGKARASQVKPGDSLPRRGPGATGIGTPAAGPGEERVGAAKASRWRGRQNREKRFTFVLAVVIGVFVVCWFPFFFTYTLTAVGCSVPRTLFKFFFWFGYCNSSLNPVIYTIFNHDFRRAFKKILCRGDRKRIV

The target in assay [9] is 5-hydroxytryptamine receptor 1B (Canis lupus familiaris, UniProt P79250).

pKi: −log10 of the molar value.

A word on the pKi: it is the Ki on a negative log10 scale, so that one unit is a factor of ten. Read a low pKi as a large Ki.

5-hydroxytryptamine receptor 2A, sequence (P28223 whole entry): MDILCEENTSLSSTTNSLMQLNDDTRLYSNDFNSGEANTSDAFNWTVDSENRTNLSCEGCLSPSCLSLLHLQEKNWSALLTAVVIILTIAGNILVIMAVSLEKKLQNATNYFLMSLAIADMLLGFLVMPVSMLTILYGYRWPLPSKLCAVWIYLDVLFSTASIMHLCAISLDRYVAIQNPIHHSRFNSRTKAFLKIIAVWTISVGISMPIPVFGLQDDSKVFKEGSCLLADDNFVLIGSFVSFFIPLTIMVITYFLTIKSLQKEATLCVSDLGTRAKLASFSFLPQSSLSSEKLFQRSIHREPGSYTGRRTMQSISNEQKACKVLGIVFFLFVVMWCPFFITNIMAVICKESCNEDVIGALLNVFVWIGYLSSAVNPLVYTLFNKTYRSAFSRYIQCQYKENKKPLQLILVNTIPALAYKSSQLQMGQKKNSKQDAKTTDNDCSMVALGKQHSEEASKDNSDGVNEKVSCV
5-hydroxytryptamine receptor 2B, sequence (P41595 whole entry): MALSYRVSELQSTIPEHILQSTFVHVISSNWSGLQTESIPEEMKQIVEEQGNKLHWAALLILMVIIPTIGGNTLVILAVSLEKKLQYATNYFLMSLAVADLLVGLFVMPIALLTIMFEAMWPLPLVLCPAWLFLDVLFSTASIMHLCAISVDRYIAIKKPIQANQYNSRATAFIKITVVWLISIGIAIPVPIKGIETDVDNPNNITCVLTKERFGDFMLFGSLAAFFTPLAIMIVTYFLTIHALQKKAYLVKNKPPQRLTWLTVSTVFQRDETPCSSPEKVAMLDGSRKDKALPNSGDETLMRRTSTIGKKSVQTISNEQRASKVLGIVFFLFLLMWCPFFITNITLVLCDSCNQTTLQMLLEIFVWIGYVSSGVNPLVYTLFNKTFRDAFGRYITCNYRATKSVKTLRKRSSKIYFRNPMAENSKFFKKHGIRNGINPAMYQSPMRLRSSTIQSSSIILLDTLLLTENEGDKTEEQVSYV
5-hydroxytryptamine receptor 1B, sequence (P79250 whole entry): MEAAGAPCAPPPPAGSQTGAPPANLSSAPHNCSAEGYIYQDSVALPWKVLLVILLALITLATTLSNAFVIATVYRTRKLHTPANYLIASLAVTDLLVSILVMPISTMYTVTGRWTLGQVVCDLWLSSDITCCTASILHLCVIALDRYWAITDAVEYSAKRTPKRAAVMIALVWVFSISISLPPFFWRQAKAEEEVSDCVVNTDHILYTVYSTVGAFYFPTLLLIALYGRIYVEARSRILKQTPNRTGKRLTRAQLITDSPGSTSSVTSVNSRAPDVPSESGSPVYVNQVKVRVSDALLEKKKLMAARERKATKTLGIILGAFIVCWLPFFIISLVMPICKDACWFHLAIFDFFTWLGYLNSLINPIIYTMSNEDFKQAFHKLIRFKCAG
5-hydroxytryptamine 1D receptor, sequence (Q8MI13 whole entry): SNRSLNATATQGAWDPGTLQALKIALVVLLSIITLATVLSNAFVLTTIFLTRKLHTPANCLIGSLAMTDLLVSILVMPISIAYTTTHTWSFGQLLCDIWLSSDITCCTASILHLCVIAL
5-hydroxytryptamine receptor 5A, sequence (P47898 whole entry): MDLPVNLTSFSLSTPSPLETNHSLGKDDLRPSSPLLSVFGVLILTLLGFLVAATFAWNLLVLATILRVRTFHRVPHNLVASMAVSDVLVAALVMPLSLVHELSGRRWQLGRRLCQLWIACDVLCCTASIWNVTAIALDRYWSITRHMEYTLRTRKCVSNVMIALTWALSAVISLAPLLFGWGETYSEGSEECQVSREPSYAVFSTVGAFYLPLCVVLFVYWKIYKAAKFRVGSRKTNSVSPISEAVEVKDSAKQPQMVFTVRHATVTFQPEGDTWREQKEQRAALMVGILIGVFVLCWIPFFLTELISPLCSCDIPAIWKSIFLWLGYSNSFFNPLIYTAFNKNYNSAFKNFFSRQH
5-hydroxytryptamine receptor 7, sequence (P34969 whole entry): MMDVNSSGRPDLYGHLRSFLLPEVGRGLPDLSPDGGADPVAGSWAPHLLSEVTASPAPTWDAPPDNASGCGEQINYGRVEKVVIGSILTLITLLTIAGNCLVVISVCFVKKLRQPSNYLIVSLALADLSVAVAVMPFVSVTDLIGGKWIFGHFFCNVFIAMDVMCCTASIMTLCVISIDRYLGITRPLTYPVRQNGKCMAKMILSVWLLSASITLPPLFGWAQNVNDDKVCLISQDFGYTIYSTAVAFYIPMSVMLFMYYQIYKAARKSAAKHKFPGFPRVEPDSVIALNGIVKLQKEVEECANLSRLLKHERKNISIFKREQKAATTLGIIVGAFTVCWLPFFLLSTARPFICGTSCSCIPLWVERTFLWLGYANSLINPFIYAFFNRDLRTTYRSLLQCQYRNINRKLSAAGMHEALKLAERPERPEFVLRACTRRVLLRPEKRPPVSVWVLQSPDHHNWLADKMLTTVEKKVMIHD

In the case of `CCc1cc2c(ccc3cnn(CC(C)N)c32)o1` (configuration not stated) [CAS_3045225], the negative logarithm of the Ki (pKi) is 8.60 in [1]; 6.75 in assay [2]; 6.00 in assay [3]; 6.32 in assay [4]; 7.89 in assay [5]; 6.00 in assay [6]. Besides, the negative logarithm of the Ki (pKi) was 9.05 in assay [7], 6.90 in assay [8] and 6.00 in [9].

As for `CC(N)Cn1ccc2cc(F)c(Cl)cc21` (configuration not stated) [NSC_3045226], the pKi is 8.62 in assay [1], 7.62 in assay [5] and 7.72 in [7].

The values above are taken from BindingDB's records for doi:10.1016/j.ejphar.2003.10.004 (Yamanouchi Pharmaceutical, 2004).
